The subject of experiment [1] is TNF-α (NF-κB pathway, THP-1 cells). Briefly: TNF-α Assay (IC50). Conditions: Homo sapiens, 600 ng/mL LPS, 3 hours. It is filed as cell-based, human. The method, boiled down: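 THP-1 cells differentiated to macrophages with 25 ng/mL IFN for 24 h, plated 40,000/well in serum-free medium, preincubated with compounds 30 min at 37 °C, then stimulated with 600 ng/mL LPS for 3 h. Supernatant TNF-α measured by ELISA; IC50 from four-parameter logistic fit, 100% inhibition defined by TPCA-1.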

Experiment [2] deals with NLRP3 inflammasome (IL-1β production in THP-1 cells). In words: IL-1β TR-FRET Assay (percentage of inhibition at 300 nM, 6 μM or 10 μM). It is filed as cell-based, human. The note with it: Homo sapiens, THP-1, 300 nM, LPS priming, ATP activation, read-out: IL-1β inhibitory rate at 300 nM (%). The method, boiled down:
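THP-1 cells were differentiated with 25 ng/mL IFN-γ for 24 h, primed with 50 ng/mL LPS in serum-free medium for 24 h, then given compound for 30 min before 20 mM ATP for 2 h. Supernatant IL-1β was measured by HTRF after 16-24 h at room temperature. Inhibition was normalized between DMSO (high) and 3 μM MCC-950 (low).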
A general note: In TR-FRET formats the signal depends on donor and acceptor labels being close together.

As usually defined, the IC50 is the concentration that gives 50% inhibition. With `Cc1cc(C)c(-n2cc3c(=O)[nH]c(C4CCCO4)nc3n2)c(O)c1` (stereo not shown) [Example 29, 2-(2-hydroxy-4,6-dimethylphenyl)-6-(oxolan-2-yl)-2,5-dihydro-4H-pyrazolo[3,4-d]pyrimidin-4-one], the IC50 in experiment [1] is over 30 µM. Besides, the inhibition at 0.3 µM in experiment [2] was found to be 97%.

`Cc1cc(C)c(-n2cc3c(=O)[nH]c(-c4cccnn4)nc3n2)c(O)c1` [Example 30, 2-(2-hydroxy-4,6-dimethylphenyl)-6-(pyridazin-3-yl)-2,5-dihydro-4H-pyrazolo[3,4-d]pyrimidin-4-one]: the IC50 in experiment [1] was over 30 µM. Besides, the inhibition at 0.3 µM in experiment [2] came out at 100%.

In experiment [1], `CCOc1nc2nn(-c3ccc(C)cc3O)c(Cl)c2c(=O)[nH]1` [Example 31, 3-chloro-6-ethoxy-2-(2-hydroxy-4-methylphenyl)-2,5-dihydro-4H-pyrazolo[3,4-d]pyrimidin-4-one] returned an IC50 of over 30 µM. In addition, the inhibition at 0.3 µM in experiment [2] is 99%.

For `Cc1cc(C)c(-n2cc3c(=O)[nH]c(OCC(F)F)nc3n2)c(O)c1` [Example 32, 6-(2,2-difluoroethoxy)-2-(2-hydroxy-4,6-dimethylphenyl)-2,5-dihydro-4H-pyrazolo[3,4-d]pyrimidin-4-one], the half-inhibitory concentration (IC50) in experiment [1] is over 30 µM. Moreover, the inhibition at 0.3 µM in experiment [2] amounted to 105%.

`Cc1cc(C)c(-n2cc3c(=O)[nH]c(CC4CCCO4)nc3n2)c(O)c1` (stereo not shown) [Example 33, 2-(2-hydroxy-4,6-dimethylphenyl)-6-[(oxolan-2-yl)methyl]-2,5-dihydro-4H-pyrazolo[3,4-d]pyrimidin-4-one] came in with an IC50 in experiment [1] of over 30 µM. The inhibition at 0.3 µM in experiment [2] was 97%.

As to `Cc1cc(C)c(-n2cc3c(=O)[nH]c(-c4ncccn4)nc3n2)c(O)c1` [Example 34, 2-(2-hydroxy-4,6-dimethylphenyl)-6-(pyrimidin-2-yl)-2,5-dihydro-4H-pyrazolo[3,4-d]pyrimidin-4-one], the IC50 in experiment [1] is over 30 µM. Moreover, in experiment [2], the inhibition at 0.3 µM was found to be 98%.

With `COC1(c2nc3nn(-c4c(C)cc(C)cc4O)cc3c(=O)[nH]2)CCC1` [Example 35, 2-(2-hydroxy-4,6-dimethylphenyl)-6-(1-methoxycyclobutyl)-2,5-dihydro-4H-pyrazolo[3,4-d]pyrimidin-4-one], in experiment [1], the IC50 was over 30 µM. For the same compound, the inhibition at 0.3 µM in experiment [2] stood at 96%.

With `CCOc1nc2nn(-c3c(C)cc(C)cc3O)c(C)c2c(=O)[nH]1` [Example 37, 6-ethoxy-2-(2-hydroxy-4,6-dimethylphenyl)-3-methyl-2,5-dihydro-4H-pyrazolo[3,4-d]pyrimidin-4-one], in experiment [1], the IC50 was over 30 µM. For the same compound, the inhibition at 0.3 µM in experiment [2] was determined as 101%.

`COCCc1nc2nn(-c3c(C)cc(C)cc3O)cc2c(=O)[nH]1` [Example 38, 2-(2-hydroxy-4,6-dimethylphenyl)-6-(2-methoxyethyl)-2,5-dihydro-4H-pyrazolo[3,4-d]pyrimidin-4-one] came in with a concentration for half-maximal inhibition (IC50) in experiment [1] of over 30 µM. Further, the inhibition at 0.3 µM in experiment [2] is 100%.

As for `CCOc1nc2nn(-c3c(C)cc(C4CC4)cc3F)cc2c(=O)[nH]1` [Example 39, 2-(4-cyclopropyl-2-fluoro-6-methylphenyl)-6-ethoxy-2,5-dihydro-4H-pyrazolo[3,4-d]pyrimidin-4-one], the IC50 in experiment [1] is over 30 µM. For the same compound, the inhibition at 0.3 µM in experiment [2] stood at 100%.

On to `Cc1cc(C)c(-n2cc3c(=O)[nH]c(CCC(C)(F)F)nc3n2)c(O)c1` [Example 40, 6-(3,3-difluorobutyl)-2-(2-hydroxy-4,6-dimethylphenyl)-2,5-dihydro-4H-pyrazolo[3,4-d]pyrimidin-4-one], for which the IC50 in experiment [1] is over 30 µM. In experiment [2], the inhibition at 0.3 µM is 100%.

Take `Cc1ccc(C)c(-n2cc3c(=O)[nH]c(-c4ccncn4)nc3n2)c1O` [Example 41, 2-(2-hydroxy-3,6-dimethylphenyl)-6-(pyrimidin-4-yl)-2,5-dihydro-4H-pyrazolo[3,4-d]pyrimidin-4-one]: the IC50 in experiment [1] was over 30 µM. In experiment [2], the inhibition at 0.3 µM came to 99%.

Compound `Cc1cc(C)c(-n2cc3c(=O)[nH]c(OCC(C)(F)F)nc3n2)c(O)c1` [Example 42, 6-(2,2-difluoropropoxy)-2-(2-hydroxy-4,6-dimethylphenyl)-2,5-dihydro-4H-pyrazolo[3,4-d]pyrimidin-4-one] displayed an IC50 in experiment [1] of over 30 µM. The inhibition at 0.3 µM in experiment [2] was 97%.

`Cc1cc(C)c(-n2cc3c(=O)[nH]c(OC(C)C(F)(F)F)nc3n2)c(O)c1` (stereo not shown) [Example 43, 2-(2-hydroxy-4,6-dimethylphenyl)-6-[(1,1,1-trifluoropropan-2-yl)oxy]-2,5-dihydro-4H-pyrazolo[3,4-d]pyrimidin-4-one] gave an IC50 in experiment [1] of over 30 µM. Besides, the inhibition at 0.3 µM in experiment [2] is 98%.

In the case of `CCOc1nc2nn(-c3ccc(C(C)C)cc3O)c(C)c2c(=O)[nH]1` [Example 44, 6-ethoxy-2-[2-hydroxy-4-(propan-2-yl)phenyl]-3-methyl-2,5-dihydro-4H-pyrazolo[3,4-d]pyrimidin-4-one], the IC50 in experiment [1] was over 30 µM. The inhibition at 0.3 µM in experiment [2] is 101%.

`Cc1cc(C)c(-n2cc3c(=O)[nH]c(-c4ccccc4Cl)nc3n2)c(O)c1` [Example 45, 6-(2-chlorophenyl)-2-(2-hydroxy-4,6-dimethylphenyl)-2,5-dihydro-4H-pyrazolo[3,4-d]pyrimidin-4-one]: the IC50 in experiment [1] is over 30 µM. The inhibition at 0.3 µM in experiment [2] was determined as 100%.

Regarding `CCOCc1nc2nn(-c3c(C)cc(C)cc3O)cc2c(=O)[nH]1` [Example 46, 6-(ethoxymethyl)-2-(2-hydroxy-4,6-dimethylphenyl)-2,5-dihydro-4H-pyrazolo[3,4-d]pyrimidin-4-one], the IC50 in experiment [1] was over 30 µM. Moreover, the inhibition at 0.3 µM in experiment [2] is 95%.

For `COc1ccccc1-c1nc2nn(-c3c(C)cc(C)cc3O)cc2c(=O)[nH]1` [Example 47, 2-(2-hydroxy-4,6-dimethylphenyl)-6-(2-methoxyphenyl)-2,5-dihydro-4H-pyrazolo[3,4-d]pyrimidin-4-one], the IC50 in experiment [1] is over 30 µM. In addition, the inhibition at 0.3 µM in experiment [2] came out at 98%.

Turning to `CCOc1nc2nn(-c3ccc(C4CC4)cc3O)c(C)c2c(=O)[nH]1` [Example 48, 2-(4-cyclopropyl-2-hydroxyphenyl)-6-ethoxy-3-methyl-2,5-dihydro-4H-pyrazolo[3,4-d]pyrimidin-4-one], the half-inhibitory concentration (IC50) in experiment [1] was over 30 µM. For the same compound, in experiment [2], the inhibition at 0.3 µM is 100%.

`CCOc1nc2nn(-c3ccc(CC)cc3O)c(C)c2c(=O)[nH]1` [Example 49, 6-ethoxy-2-(4-ethyl-2-hydroxyphenyl)-3-methyl-2,5-dihydro-4H-pyrazolo[3,4-d]pyrimidin-4-one] registered an IC50 in experiment [1] of over 30 µM. The inhibition at 0.3 µM in experiment [2] was 98%.

As to `Cc1cc(C)c(-n2cc3c(=O)[nH]c(OCCN(C)C)nc3n2)c(O)c1` [Example 50, 6-[2-(dimethylamino)ethoxy]-2-(2-hydroxy-4,6-dimethylphenyl)-2,5-dihydro-4H-pyrazolo[3,4-d]pyrimidin-4-one], the IC50 in experiment [1] was over 30 µM. The inhibition at 0.3 µM in experiment [2] worked out at 101%.

The compound `CCOc1nc2nn(-c3c(O)cc(C)cc3F)c(C)c2c(=O)[nH]1` [Example 51, 6-ethoxy-2-(2-fluoro-6-hydroxy-4-methylphenyl)-3-methyl-2,5-dihydro-4H-pyrazolo[3,4-d]pyrimidin-4-one] showed an IC50 in experiment [1] of over 30 µM. For the same compound, the inhibition at 0.3 µM in experiment [2] was determined as 100%.

In the case of `COC(C)c1nc2nn(-c3c(C)cc(C)cc3O)cc2c(=O)[nH]1` (stereo not shown) [Example 52, 2-(2-hydroxy-4,6-dimethylphenyl)-6-(1-methoxyethyl)-2,5-dihydro-4H-pyrazolo[3,4-d]pyrimidin-4-one], the IC50 in experiment [1] was over 30 µM. Moreover, in experiment [2], the inhibition at 0.3 µM amounted to 95%.

Compound `COCc1nc2nn(-c3c(C)ccc(C)c3O)cc2c(=O)[nH]1` [Example 53, 2-(2-hydroxy-3,6-dimethylphenyl)-6-(methoxymethyl)-2,5-dihydro-4H-pyrazolo[3,4-d]pyrimidin-4-one] came in with an IC50 in experiment [1] of over 30 µM. For the same compound, in experiment [2], the inhibition at 0.3 µM came to 95%.

Compound `CCOc1nc2nn(-c3c(F)cc(C(F)(F)F)cc3Br)cc2c(=O)[nH]1` [Example 54, 2-[2-bromo-6-fluoro-4-(trifluoromethyl)phenyl]-6-ethoxy-2,5-dihydro-4H-pyrazolo[3,4-d]pyrimidin-4-one] registered an IC50 in experiment [1] of over 30 µM. For the same compound, the inhibition at 0.3 µM in experiment [2] was found to be 100%.

The compound `Cc1cc(C)c(-n2cc3c(=O)[nH]c(OCC(F)(F)F)nc3n2)c(O)c1` [Example 55, 2-(2-hydroxy-4,6-dimethylphenyl)-6-(2,2,2-trifluoroethoxy)-2,5-dihydro-4H-pyrazolo[3,4-d]pyrimidin-4-one] showed an IC50 in experiment [1] of over 30 µM. Also, the inhibition at 0.3 µM in experiment [2] is 98%.

As for `CCOc1nc2nn(-c3ccc(C)cc3O)cc2c(=O)[nH]1` [Example 56, 6-ethoxy-2-(2-hydroxy-4-methylphenyl)-2,5-dihydro-4H-pyrazolo[3,4-d]pyrimidin-4-one], the IC50 in experiment [1] was over 30 µM. The inhibition at 0.3 µM in experiment [2] was 100%.

`CCOc1nc2nn(-c3c(F)cc(C)cc3Br)cc2c(=O)[nH]1` [Example 57, 2-(2-bromo-6-fluoro-4-methylphenyl)-6-ethoxy-2,5-dihydro-4H-pyrazolo[3,4-d]pyrimidin-4-one] had an IC50 in experiment [1] of over 30 µM. Besides, in experiment [2], the inhibition at 0.3 µM turned out to be 99%.

As for `Cc1cc(C)c(-n2cc3c(=O)[nH]c(-c4cc(C)ncn4)nc3n2)c(O)c1` [Example 58, 2-(2-hydroxy-4,6-dimethylphenyl)-6-(6-methylpyrimidin-4-yl)-2,5-dihydro-4H-pyrazolo[3,4-d]pyrimidin-4-one], the IC50 in experiment [1] was over 30 µM. Besides, in experiment [2], the inhibition at 0.3 µM stood at 100%.

These data come from patent US20260297092A1, “PYRAZOLOPYRIMIDINE DERIVATIVES AS INHIBITORS OF NLRP3” (Takeda Pharmaceutical Company Limited, priority 2023, published 2026).
